Laboratory results from PubChem BioAssay AID2060507 (Molecular Pharmacology Branch, DTP, NCI, 2025).

System: 519858-162-T-J1-PDC complex spheroid viability
Experiment: Anticancer human tumor 519858-162-T-J1-PDC patient-derived colon adenocarcinoma cell line growth inhibition [GQUAD]
Conditions: for IC50: curve of first compound; for viability, T/C: stronger effect = lower value
Source text: DNA G-quadruplex Stabilizer Agents in Combinations in Complex Spheroids
A high-throughput screen of multi-cell type tumor spheroids was designed to identify active combinations of DNA G-quadruplex stabilizer agents and targeted small molecules. Complex spheroids include a stromal component modeled by human endothelial cells (HUVEC) and fibroblasts modeled by human mesenchymal stem cells (MSCs). The concentration ranges selected for each drug and investigational agent were based upon clinically achievable concentrations if the clinical Cmax of the agent was known.
Compounds. The drugs and investigational agents: pidnarulex (CX-5461; NSC782164), APTO-253 (NSC789042), BRACO-19 (NSC847499), peposertib (NSC802822), ceralasertib (NSC780249), elimusertib (NSC800525), camonsertib (NSC841442), AZD-1390 (NSC803789), olaparib (NSC753686), talazoparib (NSC767125), ART-558 (NSC835418), sotorasib (NSC818433), MRTX-1133 (NSC836407), SN-38 (NSC673596), topotecan (NSC609699), etoposide (NSC141540), doxorubicin (NSC123127), gemcitabine (NSC613327), 5-fluorouracil (NSC19893), paclitaxel (NSC125973), vemurafenib (NSC761431), panobinostat (NSC761190), R-306465 (JNJ-16241199; NSC773264), adavosertib (NSC754352), TP-3654 (NSC805149), carboplatin (NSC241240), KSQ-4279 (NSC840948), and staurosporine (NSC755774) were obtained from the National Cancer Institute (NCI) Developmental Therapeutics Program Chemical Repository (34). The FDA-approved anticancer drug set is available from the NCI Developmental Therapeutics Program. […] The stock solutions were prepared in dimethyl sulfoxide (DMSO, Sigma-Aldrich, St. Louis, MO, cat. D2650) at 800-fold the tested concentration and stored at -70 degrees C prior to their use. All drugs and investigational agents were tested over a range starting from a high concentration at or near the clinical Cmax and decreasing in half-log increments. If the clinical Cmax for an agent had not been determined, the highest concentration tested was 10 microM.
2.3 Cell Culture. All cells were maintained in an incubator at 37 degrees C and 5% CO2 with 95% humidity. The PDC lines were cultured according to standard operating procedures established by the NCI PDMR. All PDCs were thawed and cultured in Matrigel-coated flasks prepared with a working solution of 1X Ham's F-12 nutrient mix, without supplementation (Invitrogen, cat. 11765054), 100 U/mL penicillin-streptomycin (Invitrogen, cat. 15140122), and 2.5% Matrigel (Corning Inc., cat. 354248) for the first three passages. The 857933-349-R-J2-PDC line was cultured in 6C/Colon 1B media, which includes advanced DMEM/F-12 (Thermo Fisher Scientific, cat. 12634028), 10 mM HEPES (Thermo Fisher Scientific, cat. 15630080), 1X GlutaMAX supplement (Thermo Fisher Scientific, cat. 35050061), 0.1 mg/mL primocin (InvivoGen, cat. ant-pm-2), 10% defined fetal bovine serum, heat inactivated (HyClone Laboratories Inc., cat. SH30070.03HI), 50% L-WRN conditioned media (ATCC, cat. CRL-3276), 1.25 mM N-Acetyl-L-cysteine (Sigma-Aldrich, cat. A9165), 10 mM nicotinamide (Sigma-Aldrich, cat. N0636), 1X B-27 supplement (Thermo Fisher Scientific, cat. 17504044), 1X N-2 supplement (Thermo Fisher Scientific, cat. 17502048), 10 microM Y-27632 dihydrochloride (Tocris Bioscience, cat. 1254), and 50 ng/mL human EGF recombinant protein (Thermo Fisher Scientific, cat. PHG0311). The 485176-168-R4-J1-PDC line was cultured in Panc media, which includes all 6C/Colon 1B media components plus 100 ng/mL human FGF-10 (Thermo Fisher Scientific, cat. 100-26), 500 nM SB-431542 (Selleckchem, cat. S1067), and gastrin (Tocris, cat. 3006).
[…]

[1] = second compound 0.0316 µM, first compound 0.0316 µM
[2] = second compound 0.0316 µM, first compound 0.1 µM
[3] = second compound 0.0316 µM, first compound 0.316 µM
[4] = second compound 0.0316 µM, first compound 1 µM
[5] = second compound 0.0316 µM, first compound 3.16 µM
[6] = second compound 0.0316 µM, first compound 10 µM
[7] = second compound 0.1 µM, first compound 0.0316 µM
[8] = second compound 0.1 µM, first compound 0.1 µM
[9] = second compound 0.1 µM, first compound 0.316 µM
[10] = second compound 0.1 µM, first compound 1 µM
[11] = second compound 0.1 µM, first compound 3.16 µM
[12] = second compound 0.1 µM, first compound 10 µM
[13] = second compound 0.316 µM, first compound 0.0316 µM
[14] = second compound 0.316 µM, first compound 0.1 µM
[15] = second compound 0.316 µM, first compound 0.316 µM
[16] = second compound 0.316 µM, first compound 1 µM
[17] = second compound 0.316 µM, first compound 3.16 µM
[18] = second compound 0.316 µM, first compound 10 µM
[19] = second compound 1 µM, first compound 0.0316 µM
[20] = second compound 1 µM, first compound 0.1 µM
[21] = second compound 1 µM, first compound 0.316 µM
[22] = second compound 1 µM, first compound 1 µM
[23] = second compound 1 µM, first compound 3.16 µM
[24] = second compound 1 µM, first compound 10 µM
[25] = second compound 3.16 µM, first compound 0.0316 µM
[26] = second compound 3.16 µM, first compound 0.1 µM
[27] = second compound 3.16 µM, first compound 0.316 µM
[28] = second compound 3.16 µM, first compound 1 µM
[29] = second compound 3.16 µM, first compound 3.16 µM
[30] = second compound 3.16 µM, first compound 10 µM
[31] = second compound 10 µM, first compound 0.0316 µM
[32] = second compound 10 µM, first compound 0.1 µM
[33] = second compound 10 µM, first compound 0.316 µM
[34] = second compound 10 µM, first compound 1 µM
[35] = second compound 10 µM, first compound 3.16 µM
[36] = second compound 10 µM, first compound 10 µM
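Note: spheroids exposed to compounds for 7 days.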
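Throughout, for viability, T/C: 100% = DMSO vehicle control viability.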

## CC(=O)O[C@H]1C(=O)[C@@]2(C)[C@H]([C@H](OC(=O)c3ccccc3)[C@]3(O)C[C@H](OC(=O)[C@H](O)[C@@H](NC(=O)c4ccccc4)c4ccccc4)C(C)=C1C3(C)C)[C@]1(OC(C)=O)CO[C@@H]1C[C@@H]2O + Cc1[nH]c2ccc(F)cc2c1-c1nc2c3cccnc3c3ncccc3c2[nH]1
Second compound 0.0316 µM
  IC50: > 10000 nM
Second compound 0.1 µM
  IC50: > 10000 nM
Second compound 0.316 µM
  IC50: > 10000 nM
Second compound 1 µM
  IC50: > 10000 nM
Second compound 3.16 µM
  IC50: > 10000 nM
Second compound 10 µM
  IC50: > 10000 nM
[1]
  viability, T/C: 80.1%
[2]
  viability, T/C: 136%
[3]
  viability, T/C: 103%
[4]
  viability, T/C: 82.4%
[5]
  viability, T/C: 71.2%
[6]
  viability, T/C: 79.7%
[7]
  viability, T/C: 87.8%
[8]
  viability, T/C: 97.5%
[9]
  viability, T/C: 109%
[10]
  viability, T/C: 98.9%
[11]
  viability, T/C: 97%
[12]
  viability, T/C: 116%
[13]
  viability, T/C: 91.1%
[14]
  viability, T/C: 78%
[15]
  viability, T/C: 70.8%
[16]
  viability, T/C: 72.3%
[17]
  viability, T/C: 108%
[18]
  viability, T/C: 126%
[19]
  viability, T/C: 116%
[20]
  viability, T/C: 62.5%
[21]
  viability, T/C: 58.5%
[22]
  viability, T/C: 89.3%
[23]
  viability, T/C: 69.4%
[24]
  viability, T/C: 109%
[25]
  viability, T/C: 67.5%
[26]
  viability, T/C: 77.5%
[27]
  viability, T/C: 51.1%
[28]
  viability, T/C: 106%
[29]
  viability, T/C: 77.8%
[30]
  viability, T/C: 55.5%
[31]
  viability, T/C: 54.5%
[32]
  viability, T/C: 93.7%
[33]
  viability, T/C: 68.1%
[34]
  viability, T/C: 74.4%
[35]
  viability, T/C: 75.5%
[36]
  viability, T/C: 104%

## CC(C)(O)C1CCC(Nc2ccc3ncc(-c4cccc(C(F)(F)F)c4)n3n2)CC1 (stereo unspecified) + Cc1[nH]c2ccc(F)cc2c1-c1nc2c3cccnc3c3ncccc3c2[nH]1
Second compound 0.0316 µM
  IC50: 2370 nM
Second compound 0.1 µM
  IC50: 2200 nM
Second compound 0.316 µM
  IC50: 1970 nM
Second compound 1 µM
  IC50: 1810 nM
Second compound 3.16 µM
  IC50: 1750 nM
Second compound 10 µM
  IC50: 1650 nM
[1]
  viability, T/C: 87.7%
[2]
  viability, T/C: 99.6%
[3]
  viability, T/C: 104%
[4]
  viability, T/C: 98.5%
[5]
  viability, T/C: 16.1%
[6]
  viability, T/C: 52.3%
[7]
  viability, T/C: 101%
[8]
  viability, T/C: 82.5%
[9]
  viability, T/C: 97.5%
[10]
  viability, T/C: 120%
[11]
  viability, T/C: 26.7%
[12]
  viability, T/C: 26.9%
[13]
  viability, T/C: 68.2%
[14]
  viability, T/C: 84.2%
[15]
  viability, T/C: 89.3%
[16]
  viability, T/C: 131%
[17]
  viability, T/C: 14.9%
[18]
  viability, T/C: 24.8%
[19]
  viability, T/C: 88%
[20]
  viability, T/C: 89.3%
[21]
  viability, T/C: 99.9%
[22]
  viability, T/C: 100%
[23]
  viability, T/C: 7.25%
[24]
  viability, T/C: 9.88%
[25]
  viability, T/C: 97.7%
[26]
  viability, T/C: 84%
[27]
  viability, T/C: 71.5%
[28]
  viability, T/C: 122%
[29]
  viability, T/C: 2.95%
[30]
  viability, T/C: 4.04%
[31]
  viability, T/C: 87.5%
[32]
  viability, T/C: 63%
[33]
  viability, T/C: 80.3%
[34]
  viability, T/C: 102%
[35]
  viability, T/C: 6.15%
[36]
  viability, T/C: 7.1%

## CC1COCCN1c1cc(C2(O)CC3CCC(C2)O3)c2cnn(-c3ccn[nH]3)c2n1 (stereo unspecified) + Cc1cnc(CNC(=O)c2c(=O)c3ccc(N4CCCN(C)CC4)nc3n3c2sc2ccccc23)cn1
Second compound 0.0316 µM
  IC50: 6310 nM
Second compound 0.1 µM
  IC50: 3160 nM
Second compound 0.316 µM
  IC50: 3200 nM
Second compound 1 µM
  IC50: 235 nM
Second compound 3.16 µM
  IC50: < 31.6 nM
Second compound 10 µM
  IC50: < 31.6 nM
[1]
  viability, T/C: 64.5%
[2]
  viability, T/C: 77.8%
[3]
  viability, T/C: 92.2%
[4]
  viability, T/C: 77.6%
[5]
  viability, T/C: 82%
[6]
  viability, T/C: 30.6%
[7]
  viability, T/C: 106%
[8]
  viability, T/C: 85.8%
[9]
  viability, T/C: 96.3%
[10]
  viability, T/C: 44.8%
[11]
  viability, T/C: 61.3%
[12]
  viability, T/C: 57.7%
[13]
  viability, T/C: 65.6%
[14]
  viability, T/C: 60%
[15]
  viability, T/C: 51.7%
[16]
  viability, T/C: 62.7%
[17]
  viability, T/C: 49.2%
[18]
  viability, T/C: 29.9%
[19]
  viability, T/C: 59.3%
[20]
  viability, T/C: 60.8%
[21]
  viability, T/C: 41.6%
[22]
  viability, T/C: 43.4%
[23]
  viability, T/C: 50.5%
[24]
  viability, T/C: 39.6%
[25]
  viability, T/C: 45.7%
[26]
  viability, T/C: 38.9%
[27]
  viability, T/C: 44.9%
[28]
  viability, T/C: 42.4%
[29]
  viability, T/C: 26.8%
[30]
  viability, T/C: 23.8%
[31]
  viability, T/C: 37.7%
[32]
  viability, T/C: 44%
[33]
  viability, T/C: 37.7%
[34]
  viability, T/C: 39.2%
[35]
  viability, T/C: 34.1%
[36]
  viability, T/C: 23.7%
